Data published in ChEMBL document CHEMBL1150026, “Synthesis of 2,3-dideoxy-2,3-didehydronucleoside analogues as potential anti HIV agents” (Bioorg Med Chem Lett, 1992).
Calls of active or inactive are those of the source. The rule behind the calls is not given here.

Tested on: C8166
Assay: Compound was tested for antiviral activity against HIV C 8166 cells at a concentration of 5-50 uM; NS - No significant activity
Format: functional, cell-based
Conditions: Homo sapiens

Compound | Activity
COc1nc(=O)n(C2C=CC(CO)O2)cc1C (stereo not drawn) | inactive
CCSc1nc(=O)n(C2C=CC(CO)O2)cc1C (stereo not drawn) | inactive
COC(=O)C(C(=O)OC)=C1NC(=O)N(C2C=CC(CO)O2)C=C1C (stereo not drawn) | inactive
